Data taken from patent US10172816B2, “Method of treating chronic obstructive pulmonary disease (CPD) with verproside” (YUNGJIN PHARMACEUTICAL CO., LTD, priority 2013, dated 2019).

Key:
[1] = test system: inflammation in lung tissue; assay: COPD rat model: histopathological examination of lung tissue; assay type: in vivo, Sprague-Dawley rat; conditions: p.o.
Method: The exposure of cigarette smoke was performed by using a cigarette smoke generator (CH Technology Corp. USA). In a detail, 1 hour after the orally administration of test samples using by Head/nose-only exposure unit (TSE System, German) according to nose-only method, the cigarette smoke was exposed by inhalation for 3 days every hour. 8 puffs (volume 35 ml, duration 2 sec, interval 1 time/min) per one piece of standard cigarette was performed in the experiment. The tested groups were divided into five groups, i.e., (i) normal group with no treatment (normal control, NC), (ii) control group exposed with cigarette smoke (COPD), (iii) test sample group treated with Daxas (1 mg/kg, p.o) 1 hr prior to cigarette smoke exposure (DA), (iv) test sample group treated with ATC2 (30 mg/ml, p.o) 1 hr prior to cigarette smoke exposure (YPL), and (v) test sample group treated with Verproside (30 mg/ml, p.o) 1 hr prior to cigarette smoke exposure (Ver).
Delivered lung was promptly fixed with 10% formaldehyde solution (F0161, SAMCHUN, Korea), and cut into slices. The slices were washed with running water for 8 hrs, embedded with epoxy, cut into slices with microtome (CUT4050, MicroTec, Germany) and stained with Hematoxylin (MHS-16, Sigma-Aldrich, USA) & Eosin (HT110-1-32, Sigma-Aldrich, USA). […]

[2] = test system: MIP-2/CXCL-2; assay: COPD mouse model (LPS+CS): MIP-2/CXCL-2 in BALF by ELISA; assay type: in vivo, BALB/c mice; conditions: 15 mg/kg, p.o.
[3] = test system: Mucin 5A/C; assay: Acrolein-induced Mucin 5A/C expression in A549 cells (RT-PCR); assay type: cell-based, human; conditions: pre-treated 1 hour, then 30 nM acrolein, dose dependent
Method: The diluted A549 cell line (ATCC, CCL-185) with DMEM medium supplemented with 5% phenol red and FBS (Fetal Bovine Serum) was seeded in 6 well plates (4×10^5 cells/well) to adhere thereto for a night, and 20 and 40 microgram/ml of ATC2 extract were treated with A549 cell line for 1 hours. 30 nM acrolein was treated therewith to induce Mucin 5A/C expression. The medium was removed the cell, washed with PBS solution and homogenized with Trizol (Invitrogen, CA, USA) for the isolation of ribonucleic acids from the cells for 5 mins. the cells were collected, transferred to centrifugal separator, completely mixed with chloroform for 15 seconds, left alone for 3 mins and centrifuged for 15 mins at the speed of 14,000 rpm. The supernatant containing ribonucleic acid was transferred to new tube and mixed with isopropylalcohol for 10 mins. The solution was centrifuged to discard the supernatant and 75% ethanol was added to the precipitate. The precipitate was centrifuged for 5 mins at the speed of 10,000 rpm and the supernatant was discarded. The precipitated ribonucleic acid was dried at room temperature for 20 mins. […] After the quantification of ribonucleic acid, the complementary DNA was synthesized using by 1 microgram of RNA and RT-kit (Omniscript RT kit, Qiagen, USA) and the synthetic cDNA was used as a template. […]

[4] = test system: neutrophils and total immunocytes in BALF; assay: COPD rat model (cigarette smoke): immunocytes in BALF; assay type: in vivo, Sprague-Dawley rat; conditions: ATC2 and Verproside 30 mg/kg
Method: 3 kinds of test samples, i.e., ATC2 (30 mg/kg), Verproside (30 mg/kg), Daxas (main ingredient: Roflumilast, 1 mg/kg) were dissolved in PBS and uses as test samples.
ATC2, Verproside, Daxas were orally administrated to the mice at the dose of 4 mg/kg, 1 hour before prior the intratracheal instillation (i.t.).
The exposure of cigarette smoke was performed by using a cigarette smoke generator (CH Technology Corp. USA). In a detail, 1 hour after the orally administration of test samples using by Head/nose-only exposure unit (TSE System, German) according to nose-only method, the cigarette smoke was exposed by inhalation for 3 days every hour. 8 puffs (volume 35 ml, duration 2 sec, interval 1 time/min) per one piece of standard cigarette was performed in the experiment. The tested groups were divided into five groups, i.e., (i) normal group with no treatment (normal control, NC), (ii) control group exposed with cigarette smoke (COPD), (iii) test sample group treated with Daxas (1 mg/kg, p.o) 1 hr prior to cigarette smoke exposure (DA), (iv) test sample group treated with ATC2 (30 mg/ml, p.o) 1 hr prior to cigarette smoke exposure (YPL), and (v) test sample group treated with Verproside (30 mg/ml, p.o) 1 hr prior to cigarette smoke exposure (Ver). After the end of experiment, the blood, BALF, and pneumonocyte of each rat were isolated and collected to test.
After finishing the experiment, rats were anesthetized with Zoletil50 (3VX9, Virbac, France, p.o) and the blood was delivered through caudal veins. In order to isolate BALF from lung, the bronchus of right lung was ligated with suture and then performed to tracheotomy. IV-use catheter (16 GA, 3S-Cath, Dukwoo, Korea) was put into the bronchus, and both of bronchus and catheter (16 GA, 3S-Cath, Dukwoo, Korea) were fixed with suture. […] The light lung ligated with suture was isolated, fixed with 10% neutral formalin solution, and the remaining lung tissue was reserved in refrigerator at −70° C. […]

[5] = test system: KC/CXCL-1 (Chemokines Gro-α); assay: COPD mouse model (LPS+CS): KC/CXCL-1 in BALF by ELISA; assay type: in vivo, BALB/c mice; conditions: 15 mg/kg, p.o.
Method: 8 weeks aged BALB/c male mice was anaesthetized with 7% chloral hydrate and 100 μl of LPS+CS mixture {LPS (100 μg/ml)+standard cigarette extract (Cigarette smoking (CS), 4 mg/ml)=1:1} was inhaled to mice (i.t.) for three weeks once a week to prepare COPD animal model. Briefly, 100 μl of LPS+CS mixture was evenly inhaled to nose and mouth of fastened mice (i.t). […] After the end of experiment, the blood, BALF, and pneumonocyte of each mice were isolated and collected to test. The level of IL-1β, IL-6, TNF-a, IL-17, MCP-1, and GRO-a (BioSource, USA) in BALF isolated from mice was determined by enzyme-linked immuno-sorbent assay. Respective antibodies against L-1β, IL-6, TNF-a, IL-17, MCP-1, and GRO-a were diluted with a coating buffer solution (291195, R&D System, USA), coated on a microwell and left alone for overnight at 4° C. Each well was washed three times with washing buffer solution and 100 μl of 10-fold diluted serum was added thereto. […] The solution was left alone for 30 mins in shadow and added with 50 μl of stop solution (DY994, R&D system, USA) to determine the absorbance using by ELISA leader at 450 nm (340PC384, Molecular Devices, USA).

For `O=C(O[C@H]1[C@@H]2C=CO[C@@H](O[C@@H]3O[C@H](CO)[C@@H](O)[C@H](O)[C@H]3O)[C@@H]2[C@@]2(CO)O[C@@H]12)c1ccc(O)c(O)c1` [verproside, 6-O-(3,4-dihydroxybenzoyl) catalpol], the “inhibitory effect on inflammation in lung tissue relative to Daxas group” value ([1]; ATC2 and Verproside 30 mg/kg versus Daxas 1 mg/kg) was “more potent”, the “inflammation (infiltration of inflammatory cells) in lung tissue compared with COPD induced group” value ([1]; ATC2 and Verproside 30 mg/kg, Daxas 1 mg/kg) was “significant decreased” and the “reduction of chemokines MIP-2/CXCL-2 in BALF compared with control group” value [2] was “more than 63.0%”. For the same compound, the “expression of Mucin 5A/C (mRNA, RT-PCR)” value [3] was “inhibited”, the “ratio of the number of neutrophils to that of immunocytes (counting 300 immunocytes) compared with COPD induced group” value ([4]; Daxas 1 mg/kg, p.o.) was “remarkably reduced ratio” and the “level of neutrophils in BALF compared with COPD induced group” value ([4]; Daxas 1 mg/kg, p.o. 1 hr prior to cigarette smoke exposure) was “remarkably reduced level”. For the same compound, the “level of total immunocytes in BALF compared with COPD induced group” value ([4]; p.o. 1 hr prior to cigarette smoke exposure) was “remarkably reduced level” and the “reduction of chemokine KC/CXCL-1 in BALF compared with control group” value [5] was “more than 57.4%”.
